Data set [1] concerns the target T1, Serotonin 5-HT5A receptor (Homo sapiens, UniProt P47898).
T1 construct: gene HTR5A
Put plainly: MDS Pharma Services binding screen at […].

The target in the next data set is T2, α2A-Adrenergic receptor (Homo sapiens, UniProt P08913).
T2 construct: gene ADRA2A
Put plainly: MDS Pharma Services binding screen at […].

Another data set addresses T3, CYP450, 2D6 (Homo sapiens, UniProt P10635).
T3 construct: gene CYP2D6
Description: in vitro. Details: MDS Pharma Lead Profiling + CYP450 screen, enzyme assays, per cent inhibition, duplicate. The procedure: (§1) The activity of Dimebon against selected set of biochemical targets was performed by MDS Pharma Services . The Dimebon was provided to MDS Pharma as dry powder, dissolved in DMSO and tested in 10 μM concentrations. The standard Lead Profiling + CYP450 screen was performed according to MDS Pharma specifications with additional custom-chosen targets added to the screen as indicated. To further understand potential mechanisms responsible for clinical effects of Dimebon, we evaluated Dimebon against a set of selected biochemical targets. Dimebon evaluation was performed by MDS Pharma Services . The standard Lead Profiling + CYP450 screen was performed with additional custom-selected targets added to the screen. The results of the screen obtained at 10 μM of Dimebon are provided as Additional File 3. […] Low affinity (50–60% inhibition) interactions were also observed for CYP450, 2C19 receptor, voltage-gated L-type Ca^2+ channel, Dopamine D4.2 receptor, and Serotonin 5-HT1 receptor. […] Supplementary file 1750-1326-3-15-S3.pdf: Additional file 3 The results of Dimebon screening against a selected set of biochemical targets. The complete results obtained by MDS Pharma with a selected list of biochemical targets using 10 μM of Dimebon as a probe. The Cat numbers refer to the MDS Pharma Services assay specification. The receptors and species are listed. Dimebon was tested at 10 μM concentratio in duplicate. The % inhibition by Dimebon is shown numerically and graphically for each receptor. Significant targets (defined as % inhibition > 50%) are highlighted in yellow. Click here for file

The target of a further data set is T4, CYP450, 1A2 (Homo sapiens, UniProt P05177).
T4 construct: gene CYP1A2
T4 sequence (P05177 whole entry): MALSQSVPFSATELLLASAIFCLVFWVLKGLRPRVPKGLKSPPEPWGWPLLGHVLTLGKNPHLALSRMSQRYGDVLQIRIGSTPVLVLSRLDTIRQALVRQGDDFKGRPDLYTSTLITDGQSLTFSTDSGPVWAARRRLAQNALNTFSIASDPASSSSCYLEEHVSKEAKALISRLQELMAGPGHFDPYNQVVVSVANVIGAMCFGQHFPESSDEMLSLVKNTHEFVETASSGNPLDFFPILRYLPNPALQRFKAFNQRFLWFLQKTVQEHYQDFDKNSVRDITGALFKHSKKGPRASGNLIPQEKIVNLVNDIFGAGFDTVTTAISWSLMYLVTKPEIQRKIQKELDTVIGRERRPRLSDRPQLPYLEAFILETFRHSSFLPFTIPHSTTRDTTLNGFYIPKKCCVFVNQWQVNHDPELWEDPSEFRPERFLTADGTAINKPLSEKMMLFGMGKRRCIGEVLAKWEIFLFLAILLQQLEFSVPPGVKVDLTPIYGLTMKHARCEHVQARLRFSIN
Put plainly: in vitro. Details: MDS Pharma Lead Profiling + CYP450 screen, enzyme assays, per cent inhibition, duplicate. As to the method: as §1

For a further data set, the target named is T5, CYP450, 2C19 (Homo sapiens, UniProt P33261).
T5 construct: gene CYP2C19
Description: in vitro. The arrangement: MDS Pharma Lead Profiling + CYP450 screen, enzyme assays, per cent inhibition, duplicate. The procedure:
as §1

In the next data set the target is T6, CYP450, 3A4 (Homo sapiens, UniProt P08684).
T6 construct: gene CYP3A4
T6 sequence (P08684 whole entry): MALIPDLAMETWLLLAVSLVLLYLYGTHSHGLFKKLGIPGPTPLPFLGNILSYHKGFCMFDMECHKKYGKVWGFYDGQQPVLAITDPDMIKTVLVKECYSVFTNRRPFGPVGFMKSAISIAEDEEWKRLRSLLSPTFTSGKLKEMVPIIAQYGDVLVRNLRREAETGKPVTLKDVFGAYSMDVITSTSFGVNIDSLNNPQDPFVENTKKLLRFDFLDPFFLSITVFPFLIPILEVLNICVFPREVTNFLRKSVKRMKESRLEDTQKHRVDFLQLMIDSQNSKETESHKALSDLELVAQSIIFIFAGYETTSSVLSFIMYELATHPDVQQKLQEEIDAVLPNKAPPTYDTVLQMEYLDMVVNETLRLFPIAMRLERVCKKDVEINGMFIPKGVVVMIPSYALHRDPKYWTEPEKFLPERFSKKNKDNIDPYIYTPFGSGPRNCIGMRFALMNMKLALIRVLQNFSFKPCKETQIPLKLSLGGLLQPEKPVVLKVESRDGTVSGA
Description: in vitro. Details: MDS Pharma Lead Profiling + CYP450 screen, enzyme assays, per cent inhibition, duplicate. As to the method:
as §1

A further data set concerns the target T7, Histamine H1 receptor (Homo sapiens, UniProt P35367).
T7 construct: gene HRH1
Put plainly: MDS Pharma Services binding screen at […].

Data set [2] has as its target Peptidase, BACE1 (beta-Secretase) (Homo sapiens, UniProt P56817). Put plainly: biochemical. The arrangement: MDS Pharma Lead Profiling + CYP450 screen, enzyme assays, per cent inhibition, duplicate. The procedure: as §1
The next data set concerns the target T8, Monoamine Oxidase MAO-B (Homo sapiens, UniProt P27338).
T8 construct: gene MAOB
Put plainly: biochemical. The arrangement: MDS Pharma Lead Profiling + CYP450 screen, enzyme assays, per cent inhibition, duplicate. The procedure:
as §1

In another data set the target is T9, Monoamine Oxidase MAO-A (Homo sapiens, UniProt P21397).
T9 construct: gene MAOA
Put plainly: biochemical. Details: MDS Pharma Lead Profiling + CYP450 screen, enzyme assays, per cent inhibition, duplicate. The procedure:
as §1

The target of another data set is T10, Serotonin 5-HT6 receptor (Homo sapiens, UniProt P50406).
T10 construct: gene HTR6
T10 sequence (P50406 whole entry): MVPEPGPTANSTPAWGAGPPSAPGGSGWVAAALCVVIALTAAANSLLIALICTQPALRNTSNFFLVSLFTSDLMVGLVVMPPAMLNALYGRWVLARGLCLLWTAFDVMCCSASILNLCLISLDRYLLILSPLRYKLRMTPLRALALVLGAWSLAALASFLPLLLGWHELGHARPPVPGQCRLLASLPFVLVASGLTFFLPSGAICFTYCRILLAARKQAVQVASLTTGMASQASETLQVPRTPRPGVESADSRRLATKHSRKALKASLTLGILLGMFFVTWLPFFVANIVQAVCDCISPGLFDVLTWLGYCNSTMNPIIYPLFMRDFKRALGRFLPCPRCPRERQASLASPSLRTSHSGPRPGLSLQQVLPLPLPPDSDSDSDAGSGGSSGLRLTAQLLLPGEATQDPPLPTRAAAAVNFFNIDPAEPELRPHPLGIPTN
Put plainly: MDS Pharma Services binding screen at […].

The next data set addresses T11, α1A-Adrenergic receptor (Rattus norvegicus, UniProt P43140).
T11 construct: gene Adra1a
Description: MDS Pharma Services binding screen at […].

The target in another data set is T12, Dopamine D3 (Homo sapiens, UniProt P35462).
T12 construct: gene DRD3
Description: biochemical. The arrangement: MDS Pharma Lead Profiling screen, binding assays, per cent inhibition, duplicate. As to the method: as §1

The next data set concerns the target T13, Tachykinin NK1 (Homo sapiens, UniProt P25103).
T13 construct: gene TACR1
Put plainly: biochemical. The arrangement: MDS Pharma Lead Profiling screen, binding assays, per cent inhibition, duplicate. As to the method:
as §1

Data set [3] addresses T14, Transporter, Dopamine (DAT) (Homo sapiens, UniProt Q01959).
T14 construct: gene SLC6A3
Description: biochemical. Details: MDS Pharma Lead Profiling screen, binding assays, per cent inhibition, duplicate. As to the method:
as §1

The target of data set [4] is T15, G Protein-Coupled Receptor GPR103 (Homo sapiens, UniProt Q96P65).
T15 construct: gene QRFPR
T15 sequence (Q96P65 whole entry): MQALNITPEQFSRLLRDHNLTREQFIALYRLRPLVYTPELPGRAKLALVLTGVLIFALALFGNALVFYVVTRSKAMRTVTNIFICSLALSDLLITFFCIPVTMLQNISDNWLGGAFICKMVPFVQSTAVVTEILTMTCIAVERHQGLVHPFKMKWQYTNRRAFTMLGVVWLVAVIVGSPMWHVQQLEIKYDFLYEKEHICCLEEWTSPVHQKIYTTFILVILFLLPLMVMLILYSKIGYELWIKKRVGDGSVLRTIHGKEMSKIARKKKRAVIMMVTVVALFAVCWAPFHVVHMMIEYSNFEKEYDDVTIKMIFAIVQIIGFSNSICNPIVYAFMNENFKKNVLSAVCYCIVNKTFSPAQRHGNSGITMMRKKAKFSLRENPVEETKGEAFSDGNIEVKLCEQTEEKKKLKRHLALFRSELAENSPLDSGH
Description: biochemical. Details: MDS Pharma Lead Profiling screen, binding assays, per cent inhibition, duplicate. As to the method: as §1

In the next data set the target is T16, Bradykinin B2 (Homo sapiens, UniProt P30411).
T16 construct: gene BDKRB2
T16 sequence (P30411 whole entry): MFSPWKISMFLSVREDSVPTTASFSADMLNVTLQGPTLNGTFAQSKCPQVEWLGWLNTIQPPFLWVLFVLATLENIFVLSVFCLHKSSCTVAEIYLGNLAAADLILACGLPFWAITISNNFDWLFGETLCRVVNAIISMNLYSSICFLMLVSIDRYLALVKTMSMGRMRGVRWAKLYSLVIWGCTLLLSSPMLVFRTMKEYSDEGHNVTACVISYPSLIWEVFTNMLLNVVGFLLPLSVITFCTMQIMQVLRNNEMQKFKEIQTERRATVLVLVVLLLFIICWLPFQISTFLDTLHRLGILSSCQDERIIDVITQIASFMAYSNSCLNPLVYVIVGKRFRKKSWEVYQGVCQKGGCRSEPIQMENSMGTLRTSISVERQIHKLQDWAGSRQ
Description: biochemical. The arrangement: MDS Pharma Lead Profiling screen, binding assays, per cent inhibition, duplicate. The procedure:
as §1

For another data set, the target named is T17, Melatonin MT1 (Homo sapiens, UniProt P48039).
T17 construct: gene MTNR1A
Description: biochemical. The arrangement: MDS Pharma Lead Profiling screen, binding assays, per cent inhibition, duplicate. As to the method: as §1

Another data set concerns the target T18, Adenosine A1 (Homo sapiens, UniProt P30542).
T18 construct: gene ADORA1
Put plainly: biochemical. The arrangement: MDS Pharma Lead Profiling screen, binding assays, per cent inhibition, duplicate. As to the method:
as §1

The next data set addresses T19, Sigma 1 (Homo sapiens, UniProt Q99720).
T19 construct: gene SIGMAR1
Description: biochemical. Details: MDS Pharma Lead Profiling screen, binding assays, per cent inhibition, duplicate. The procedure:
as §1

The next data set has as its target T20, Muscarinic M3 (Homo sapiens, UniProt P20309).
T20 construct: gene CHRM3
Put plainly: biochemical. The arrangement: MDS Pharma Lead Profiling screen, binding assays, per cent inhibition, duplicate. The procedure:
as §1

The next data set deals with T21, Glucocorticoid (Homo sapiens, UniProt P04150).
T21 construct: gene NR3C1
T21 sequence (P04150 whole entry): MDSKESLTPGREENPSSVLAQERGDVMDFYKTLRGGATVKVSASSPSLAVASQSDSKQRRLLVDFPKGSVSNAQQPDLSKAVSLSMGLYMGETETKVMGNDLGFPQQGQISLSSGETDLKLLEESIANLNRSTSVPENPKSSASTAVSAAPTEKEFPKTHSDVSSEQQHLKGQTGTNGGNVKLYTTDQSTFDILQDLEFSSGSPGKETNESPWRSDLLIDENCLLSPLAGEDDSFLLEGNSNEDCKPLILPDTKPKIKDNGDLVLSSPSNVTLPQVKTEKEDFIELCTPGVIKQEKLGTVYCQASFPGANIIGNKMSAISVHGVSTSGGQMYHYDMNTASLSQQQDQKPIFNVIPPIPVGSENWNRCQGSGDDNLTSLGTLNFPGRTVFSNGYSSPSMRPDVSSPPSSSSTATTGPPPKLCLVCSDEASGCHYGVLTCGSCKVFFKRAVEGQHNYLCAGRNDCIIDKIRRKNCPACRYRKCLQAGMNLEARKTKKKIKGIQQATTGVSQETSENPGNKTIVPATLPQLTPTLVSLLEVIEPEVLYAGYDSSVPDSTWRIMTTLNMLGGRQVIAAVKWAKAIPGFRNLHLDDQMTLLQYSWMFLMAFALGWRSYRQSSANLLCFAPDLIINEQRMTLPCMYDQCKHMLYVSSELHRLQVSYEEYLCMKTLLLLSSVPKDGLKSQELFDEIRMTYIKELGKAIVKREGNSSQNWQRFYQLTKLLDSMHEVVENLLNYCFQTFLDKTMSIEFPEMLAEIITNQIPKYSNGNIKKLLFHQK
Description: biochemical. The arrangement: MDS Pharma Lead Profiling screen, binding assays, per cent inhibition, duplicate. As to the method: as §1

Some results are limits rather than exact numbers.

The values that follow come from paper PMC2577671, “Evaluation of Dimebon in cellular model of Huntington's disease” (Molecular Neurodegeneration, 2008).

T13 sequence (P25103 whole entry): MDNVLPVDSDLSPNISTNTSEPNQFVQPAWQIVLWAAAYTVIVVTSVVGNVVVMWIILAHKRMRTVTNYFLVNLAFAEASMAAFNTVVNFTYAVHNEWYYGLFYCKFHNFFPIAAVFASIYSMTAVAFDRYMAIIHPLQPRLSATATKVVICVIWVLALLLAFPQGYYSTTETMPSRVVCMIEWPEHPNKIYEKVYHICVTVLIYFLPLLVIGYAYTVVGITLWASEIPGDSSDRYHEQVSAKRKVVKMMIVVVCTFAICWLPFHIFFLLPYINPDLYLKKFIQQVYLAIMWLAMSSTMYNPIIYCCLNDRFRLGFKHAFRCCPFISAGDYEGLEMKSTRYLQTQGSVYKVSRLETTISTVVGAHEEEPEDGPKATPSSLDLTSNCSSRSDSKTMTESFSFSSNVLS
Sequence of Peptidase, BACE1 (beta-Secretase) (P56817 whole entry): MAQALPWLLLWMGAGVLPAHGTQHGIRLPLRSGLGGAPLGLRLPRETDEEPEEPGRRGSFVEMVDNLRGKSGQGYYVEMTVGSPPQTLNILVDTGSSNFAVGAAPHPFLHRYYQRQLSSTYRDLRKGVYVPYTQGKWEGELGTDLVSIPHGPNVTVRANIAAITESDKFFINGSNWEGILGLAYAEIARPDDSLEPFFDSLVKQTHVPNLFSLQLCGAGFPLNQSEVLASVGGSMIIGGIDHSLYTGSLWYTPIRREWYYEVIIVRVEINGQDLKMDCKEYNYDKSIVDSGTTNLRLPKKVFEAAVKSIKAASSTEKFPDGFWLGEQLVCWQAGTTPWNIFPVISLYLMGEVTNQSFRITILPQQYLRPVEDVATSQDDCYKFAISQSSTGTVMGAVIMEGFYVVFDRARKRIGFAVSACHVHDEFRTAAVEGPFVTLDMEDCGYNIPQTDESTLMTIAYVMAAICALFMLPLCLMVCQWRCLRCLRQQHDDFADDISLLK
T19 sequence (Q99720 whole entry): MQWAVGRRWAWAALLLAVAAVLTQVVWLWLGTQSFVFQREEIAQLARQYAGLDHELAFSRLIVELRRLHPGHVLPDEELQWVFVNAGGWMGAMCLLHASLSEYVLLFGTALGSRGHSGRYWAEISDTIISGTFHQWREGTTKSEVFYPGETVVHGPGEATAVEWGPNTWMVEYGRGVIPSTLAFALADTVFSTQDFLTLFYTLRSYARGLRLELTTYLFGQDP
T14 sequence (Q01959 whole entry): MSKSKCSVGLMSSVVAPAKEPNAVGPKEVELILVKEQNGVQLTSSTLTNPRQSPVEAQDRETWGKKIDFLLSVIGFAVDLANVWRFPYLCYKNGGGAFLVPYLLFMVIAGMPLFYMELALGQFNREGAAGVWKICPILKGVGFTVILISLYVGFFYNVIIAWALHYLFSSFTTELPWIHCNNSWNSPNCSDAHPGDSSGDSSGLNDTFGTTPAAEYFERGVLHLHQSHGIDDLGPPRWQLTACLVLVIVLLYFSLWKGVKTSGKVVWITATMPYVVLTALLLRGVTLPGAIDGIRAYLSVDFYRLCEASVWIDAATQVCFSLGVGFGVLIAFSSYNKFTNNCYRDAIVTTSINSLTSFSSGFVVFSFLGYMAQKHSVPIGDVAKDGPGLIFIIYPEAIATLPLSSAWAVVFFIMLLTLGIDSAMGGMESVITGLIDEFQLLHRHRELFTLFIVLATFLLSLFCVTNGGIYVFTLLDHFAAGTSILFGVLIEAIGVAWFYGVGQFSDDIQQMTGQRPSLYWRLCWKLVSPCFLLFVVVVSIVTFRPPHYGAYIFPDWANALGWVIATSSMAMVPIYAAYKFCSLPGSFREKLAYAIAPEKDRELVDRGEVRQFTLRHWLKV

Usually inhibition stands for the drop in the measured response relative to a control, in per cent. For the molecule `Cc1ccc2c(c1)c1c(n2CCc2ccc(C)nc2)CCN(C)C1` [Dimebon, 2,3,4,5-Tetrahydro-2,8-dimethyl-5-(2-(6-methyl-3-pyridyl)ethyl)-1H-pyrido(4,3-b)indole], the inhibition at 10 µM in [1] is over 90%; at α2A-Adrenergic receptor, over 90%; on CYP450, 2D6 it was 16%; on CYP450, 1A2, 5%; at CYP450, 2C19, 55%; at CYP450, 3A4, 22%. Besides, the inhibition at 10 µM on Histamine H1 receptor is over 90%; in [2], -9%; at Monoamine Oxidase MAO-B it was 5%; at Monoamine Oxidase MAO-A it was 6%; at Serotonin 5-HT6 receptor, over 90%; at α1A-Adrenergic receptor, over 90%. In addition, the inhibition at 10 µM at Dopamine D3 is 73%; at Tachykinin NK1, 20%; in data set [3], 13%; in [4], 4%; at Bradykinin B2, -2%; on Melatonin MT1 it was 3%. Moreover, the inhibition at 10 µM was found to be 0% at Adenosine A1, 28% at Sigma 1, 7% on Muscarinic M3 and 3% on Glucocorticoid.
